Measured values: US20210180023A1, “CARDIAC REPAIR BY REPROGRAMMING OF ADULT CARDIAC FIBROBLASTS INTO CARDIOMYOCYTES” (The Board of Regents of the University of Texas System, priority 2017, published 2021)

Columns and labels:
[1] = tested on: αMHC-GFP adult cardiac fibroblasts (CF); assay: Flow cytometry (FACS) of αMHC-GFP+ and cTnT+ adult cardiac fibroblasts after reprogramming; format: cell-based, mouse; settings: ZNF281 added to 5F, adult CFs, 7 days
Description: Flow Cytometry. For flow Cytometry, cells were trypsinized and fixed with fixation buffer (BD Bioscience) for 15 min on ice. Fixed cells were washed with Perm/Wash buffer (BD Bioscience) for three times. Washed cells were incubated with mouse monoclonal anti-cardiac Troponin T (cTnT) antibody (Thermo Scientific) at 1:200 dilution and Rabbit anti-GFP antibody (Thermo Scientific) at 1:200 dilution in Perm/Wash buffer for 1 hr on ice. Cells then were washed with Perm/Wash buffer for three times followed by incubation with donkey anti-mouse Alexa fluor 647 (Invitrogen) at 1:200 and goat anti-rabbit Alexa fluor 488 at 1:200 (Invitrogen). Cells were washed with Perm/Wash buffer, and then analyzed using FACS Caliber (BD Sciences) and FlowJo software.
(§1) ZNF281 enhances cardiac reprogramming of adult fibroblasts. PHF7 and ZNF281 were the two strongest activators identified from retroviral cDNA expression screen with 5F (FIG. 1D; Table S2). PHF7 is only expressed in the male germ line (Yang et al., 2012), whereas ZNF281 has a broad expression pattern with enriched expression in the heart (FIG. 51). The inventors therefore focused their initial attention on ZNF281 and explored its ability to enhance the activity of 5F. They refer to the reprogramming mix of 5F plus ZNF281 as 6F. The inventors validated the results of their screen by assessing GFP and cTnT expression in αMHC-GFP TTFs following 5F and 6F reprogramming after 7 days (FIG. 3A). […] This TTF reprogramming efficiency using 6F is noteworthy when considering the relatively low statistical likelihood of each fibroblast taking up all five or six separate retroviruses encoding the reprogramming factors. The inventors also examined the expression of cardiac and fibroblast transcripts by q-PCR. […] The addition of ZNF281 to 5F increased the expression of GFP and cTnT in αMHC-GFP CFs evaluated by immunocytochemistry after 7 days of reprogramming (FIG. 10A). […]

[2] = tested on: adult cardiac fibroblasts (CF); assay: Beating cells after 4 weeks of reprogramming; format: cell-based, mouse; settings: ZNF281 in presence of 5F
Text: as §1

adult αMHC-GFP TTFs = assay: Flow cytometry of αMHC-GFP+ and cTnT+ TTFs after retroviral reprogramming; format: cell-based, mouse; settings: ZNF281 added to 5F (6F), 7 days
Description: Retroviruses production, cellular reprogramming and treatment. For retroviruses production, Platinum E cells were seeded into culture dishes (1×10^5 cells/cm2) one day before transfection in DMEM supplemented with 10% FBS and 1% penicillin/streptomycin. Cells reached ˜80% confluency on the day of transfection. DNA plasmids were transfected into Platinum E cells using FuGENE 6 transfection reagent. Twenty-four hours after transfection, wild type or αMHC-GFP tail-tip fibroblasts were seeded into culture dishes or plates that were precoated with SureCoat (Cellutron) for one hour at a density of 6×10^4/cm^2. Forty-eight hours after transfection, polybrene was added to viral medium that was filtered through a 0.45-μm filter at a concentration of […]. The mixture replaced the growth medium in the cell culture plate with tail-tip fibroblasts. The viral infection was serially repeated twice. Twenty-four hours after the second infection, the viral medium was replaced with induction medium, composed of DMEM/199 (4:1), 10% conditioned medium obtained from neonatal rat cardiomyocyte culture, 10% FBS, 5% horse serum, 1% penicillin/streptomycin, 1% nonessential amino acids, 1% essential amino acids, 1% B-27, 1% insulin-selenium-transferrin, 1% vitamin mixture, and 1% sodium pyruvate (Invitrogen). Small molecule treatments were used throughout the reprogramming process […] (Sigma).
Flow Cytometry. For flow Cytometry, cells were trypsinized and fixed with fixation buffer (BD Bioscience) for 15 min on ice. Fixed cells were washed with Perm/Wash buffer (BD Bioscience) for three times. […] Cells were washed with Perm/Wash buffer, and then analyzed using FACS Caliber (BD Sciences) and FlowJo software.
ZNF281 enhances cardiac reprogramming of adult fibroblasts. […] The addition of ZNF281 to 5F increased the expression of GFP and cTnT in αMHC-GFP CFs evaluated by immunocytochemistry after 7 days of reprogramming (FIG. 10A). […]

[3] = tested on: Myc-tagged HAND2, MEF2c, or TBX5; assay: Co-immunoprecipitation in transfected HEK293 cells; format: binding
Description: (§2) Immunoprecipitation and Western Blot Analysis. Flag-epitope tag ZNF281 fusion protein were co-expressed with myc-epitope tag fusion GATA4, HAND2, MEF2C or TBX5 in HEK293 cells for 48 hours. Cell lysates were incubated overnight with 1 μg of mouse monoclonal anti-FLAG antibody (Sigma). The cell lysates were pulldown using magnetic Protein G Dynabeads (Invitrogen) and then the Flag-ZNF281 was eluted using 0.5 mg/ml of free Flag peptide (Sigma). The final elution and the input obtained before the immunoprecipitation was analyzed by SDS-PAGE western blot using a mouse monoclonal anti-Myc antibody (Novex) or mouse monoclonal anti-FLAG antibody (Sigma).
(§3) ZNF281 is a GATA4 coactivator. Previous reports described the influence of ZNF281 on pluripotency, stemness and epithelial-mesenchymal transition (EMT) (Hahn and Hermeking, 2014). However, the potential involvement of ZNF281 in cardiac development has not been previously explored. To begin to define the molecular mechanism whereby ZNF281 enhances cardiac reprogramming, the inventors performed co-immunoprecipitation assays with ZNF281 and each reprogramming transcription factor in transfected HEK293 cells.

Myc-tagged GATA4 = biological target: T1, Myc-tagged GATA4 (Homo sapiens, UniProt P43694); assay: Co-immunoprecipitation in transfected HEK293 cells; format: binding
T1 construct: expressed in transfected cells; host or cells: HEK293
Description: as §2, §3

T1 sequence (P43694 whole entry): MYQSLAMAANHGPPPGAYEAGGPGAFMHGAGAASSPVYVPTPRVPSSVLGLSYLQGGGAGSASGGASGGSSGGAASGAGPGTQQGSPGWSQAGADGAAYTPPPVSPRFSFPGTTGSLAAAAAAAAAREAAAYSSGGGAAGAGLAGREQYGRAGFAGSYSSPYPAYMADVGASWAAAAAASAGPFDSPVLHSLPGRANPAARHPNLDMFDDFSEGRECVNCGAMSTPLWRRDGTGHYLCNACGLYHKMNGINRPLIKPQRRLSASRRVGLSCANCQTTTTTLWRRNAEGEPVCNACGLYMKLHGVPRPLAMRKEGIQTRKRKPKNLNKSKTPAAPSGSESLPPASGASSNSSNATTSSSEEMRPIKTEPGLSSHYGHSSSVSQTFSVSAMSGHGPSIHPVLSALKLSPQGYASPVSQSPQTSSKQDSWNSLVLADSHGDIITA

Substance: Zinc finger protein 281 [ZNF281]
- cTnT+ iCMs [1]: ~45%
- αMHC-GFP+ iCMs [1]: ~25%
- αMHC-GFP+/cTnT+ iCMs [1]: ~21%
- increase in the number of beating cells [2]: 2 fold
- cTnT+ TTFs (adult αMHC-GFP TTFs): ~45%
- αMHC-GFP+ TTFs (adult αMHC-GFP TTFs): ~33%
- αMHC-GFP+/cTnT+ TTFs (adult αMHC-GFP TTFs): ~28%
- co-immunoprecipitation of FLAG-tagged ZNF281 [3]: not with the other three factors
- co-immunoprecipitation of FLAG-tagged ZNF281 (Myc-tagged GATA4): co-immunoprecipitated
